Source: PubChem BioAssay (NCI)
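Growth conditions: 96-well plates. Treatment: test compound, 48 hours, 5 concentrations. Analysis: linear interpolation between bracketing concentrations; unreached endpoints set to highest concentration. The concentration for full growth arrest is given as TGI.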

Tests used:
Experiment in all cases: NCI tumour cell line growth inhibition, 48 h
SK-MEL-2 melanoma = test system: SK-MEL-2 melanoma
HOP-92 NSCLC = test system: HOP-92 NSCLC
NCI-H23 lung = test system: NCI-H23 lung
DU-145 prostate = test system: DU-145 prostate
K-562 leukemia = test system: K-562 leukemia
UACC-257 melanoma = test system: UACC-257 melanoma
HL-60(TB) leukemia = test system: HL-60(TB) leukemia
ACHN renal = test system: ACHN renal
MCF7 breast = test system: MCF7 breast
HCT-116 colon = test system: HCT-116 colon
OVCAR-8 ovarian = test system: OVCAR-8 ovarian
NCI-H522 lung = test system: NCI-H522 lung
SW-620 colon = test system: SW-620 colon
SF-268 CNS = test system: SF-268 CNS
U251 CNS = test system: U251 CNS
NCI/ADR-RES ovarian = test system: NCI/ADR-RES ovarian
OVCAR-4 ovarian = test system: OVCAR-4 ovarian
SF-539 CNS = test system: SF-539 CNS
A549 NSCLC = test system: A549 NSCLC
MDA-N = test system: MDA-N
UACC-62 melanoma = test system: UACC-62 melanoma
A498 renal = test system: A498 renal
CAKI-1 renal = test system: CAKI-1 renal
SNB-19 CNS = test system: SNB-19 CNS
HT29 colon = test system: HT29 colon
NCI-H226 lung = test system: NCI-H226 lung
RPMI-8226 leukemia = test system: RPMI-8226 leukemia
786-0 renal = test system: 786-0 renal
OVCAR-5 ovarian = test system: OVCAR-5 ovarian
CCRF-CEM leukemia = test system: CCRF-CEM leukemia
M14 melanoma = test system: M14 melanoma
HOP-62 NSCLC = test system: HOP-62 NSCLC
HS 578T breast = test system: HS 578T breast
EKVX NSCLC = test system: EKVX NSCLC
MOLT-4 leukemia = test system: MOLT-4 leukemia
BT-549 breast = test system: BT-549 breast
HCT-15 colon = test system: HCT-15 colon
PC-3 prostate = test system: PC-3 prostate
RXF 393 renal = test system: RXF 393 renal
KM12 colon = test system: KM12 colon
TK-10 renal = test system: TK-10 renal
MDA-MB-231 breast = test system: MDA-MB-231 breast
MALME-3M melanoma = test system: MALME-3M melanoma
SR leukemia = test system: SR leukemia
T-47D breast = test system: T-47D breast
UO-31 renal = test system: UO-31 renal
COLO 205 colon = test system: COLO 205 colon
SK-MEL-28 melanoma = test system: SK-MEL-28 melanoma
SK-MEL-5 melanoma = test system: SK-MEL-5 melanoma
OVCAR-3 ovarian = test system: OVCAR-3 ovarian
IGROV1 ovarian = test system: IGROV1 ovarian
HCC-2998 colon = test system: HCC-2998 colon
LOX IMVI melanoma = test system: LOX IMVI melanoma
SF-295 CNS = test system: SF-295 CNS
SN12C renal = test system: SN12C renal
NCI-H460 lung = test system: NCI-H460 lung
MDA-MB-435 = test system: MDA-MB-435
SK-OV-3 ovarian = test system: SK-OV-3 ovarian

Measured: TGI

C[C@H](CCC(=O)NCCS(=O)(=O)O)[C@H]1CC[C@H]2[C@@H]3[C@H](O)C[C@@H]4C[C@H](O)CC[C@]4(C)[C@H]3CC[C@]12C
> 100 µM: all assays above
